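Method: 48-hour compound exposure of cells in 96-well plates, five concentrations, linear interpolation of endpoints. At the GI50, growth is halved.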 The source made the active and inactive calls. No stated cut-off is given here; in the data, active = GI50 up to about 1.1 µM and inactive = higher.
Experiments:
Experiment in all cases: inhibition of tumour cell growth, NCI panel, 48 h
786-0 = test system: 786-0
A498 = test system: A498
COLO 205 = test system: COLO 205
HCT-15 = test system: HCT-15
HL-60 = test system: HL-60
HOP-62 = test system: HOP-62
HOP-92 = test system: HOP-92
M14 = test system: M14
MDA-MB-231 = test system: MDA-MB-231
Malme-3M = test system: Malme-3M
NCI/ADR-RES = test system: NCI/ADR-RES
OVCAR-3 = test system: OVCAR-3
PC-3 = test system: PC-3
RPMI-8226 = test system: RPMI-8226
SK-MEL-5 = test system: SK-MEL-5
SNB-19 = test system: SNB-19
SNB-75 = test system: SNB-75
SW-620 = test system: SW-620
UO-31 = test system: UO-31
MOLT-4 = test system: MOLT-4

NC(=O)C(C(N)=O)=C(O)/C(O)=C/C(=O)c1ccccc1
GI50 (786-0): > 100 µM (inactive)
GI50 (A498): > 100 µM (inactive)
GI50 (COLO 205): > 100 µM (inactive)
GI50 (HCT-15): > 100 µM
GI50 (HL-60): 28.4 µM (inactive)
GI50 (HOP-62): > 100 µM (inactive)
GI50 (HOP-92): > 100 µM (inactive)
GI50 (M14): > 100 µM (inactive)
GI50 (MDA-MB-231): > 100 µM (inactive)
GI50 (Malme-3M): 39.9 µM (inactive)
GI50 (NCI/ADR-RES): > 100 µM (inactive)
GI50 (OVCAR-3): 51.4 µM (inactive)
GI50 (PC-3): > 100 µM (inactive)
GI50 (RPMI-8226): 12.6 µM (inactive)
GI50 (SK-MEL-5): 73.8 µM (inactive)
GI50 (SNB-19): > 100 µM (inactive)
GI50 (SNB-75): > 100 µM (inactive)
GI50 (SW-620): 81.1 µM (inactive)
GI50 (UO-31): > 100 µM (inactive)

CN1C(=O)c2ccccc2NC(=O)C12O[C@@H]2c1ccccc1 (some centres undefined)
GI50 (786-0): > 100 µM (inactive)
GI50 (A498): > 100 µM (inactive)
GI50 (COLO 205): > 100 µM (inactive)
GI50 (HCT-15): > 10 µM
GI50 (HL-60): > 100 µM (inactive)
GI50 (HOP-62): > 100 µM (inactive)
GI50 (HOP-92): > 100 µM (inactive)
GI50 (M14): > 100 µM (inactive)
GI50 (MDA-MB-231): 67.6 µM (inactive)
GI50 (MOLT-4): > 100 µM (inactive)
GI50 (Malme-3M): > 100 µM (inactive)
GI50 (NCI/ADR-RES): > 100 µM (inactive)
GI50 (OVCAR-3): > 100 µM (inactive)
GI50 (PC-3): > 100 µM (inactive)
GI50 (RPMI-8226): > 100 µM (inactive)
GI50 (SK-MEL-5): > 100 µM (inactive)
GI50 (SNB-19): > 10 µM (inactive)
GI50 (SNB-75): 62.8 µM (inactive)
GI50 (SW-620): > 100 µM (inactive)
GI50 (UO-31): > 100 µM (inactive)

O=S(=O)(Nc1ccccc1S(=O)(=O)c1ccccc1)c1ccccc1
GI50 (786-0): > 100 µM (inactive)
GI50 (A498): 91.8 µM (inactive)
GI50 (COLO 205): 38.1 µM (inactive)
GI50 (HCT-15): 50.6 µM
GI50 (HL-60): 30.8 µM (inactive)
GI50 (HOP-62): > 100 µM (inactive)
GI50 (HOP-92): 76.9 µM (inactive)
GI50 (M14): > 100 µM (inactive)
GI50 (MDA-MB-231): > 100 µM (inactive)
GI50 (MOLT-4): 65.8 µM (inactive)
GI50 (Malme-3M): 69.5 µM (inactive)
GI50 (NCI/ADR-RES): 57.1 µM (inactive)
GI50 (OVCAR-3): 65.6 µM (inactive)
GI50 (PC-3): 52.4 µM (inactive)
GI50 (RPMI-8226): 32.3 µM (inactive)
GI50 (SK-MEL-5): 58.6 µM (inactive)
GI50 (SNB-19): > 100 µM (inactive)
GI50 (SNB-75): > 100 µM (inactive)
GI50 (SW-620): 92.3 µM (inactive)
GI50 (UO-31): > 100 µM (inactive)

CC(C)OC(=O)Nc1c([N+](=O)[O-])cc(C(F)(F)F)cc1[N+](=O)[O-]
GI50 (786-0): 15.9 µM (inactive)
GI50 (A498): > 100 µM (inactive)
GI50 (COLO 205): > 100 µM (inactive)
GI50 (HCT-15): > 100 µM
GI50 (HL-60): > 100 µM (inactive)
GI50 (HOP-62): 93.3 µM (inactive)
GI50 (HOP-92): 33 µM (inactive)
GI50 (M14): > 100 µM (inactive)
GI50 (MDA-MB-231): 59.4 µM (inactive)
GI50 (MOLT-4): > 46.5 µM (inactive)
GI50 (Malme-3M): > 100 µM (inactive)
GI50 (NCI/ADR-RES): > 100 µM (inactive)
GI50 (OVCAR-3): > 100 µM (inactive)
GI50 (PC-3): > 100 µM (inactive)
GI50 (RPMI-8226): > 100 µM (inactive)
GI50 (SK-MEL-5): > 100 µM (inactive)
GI50 (SNB-19): 41.1 µM (inactive)
GI50 (SNB-75): 5.38 µM (inactive)
GI50 (SW-620): > 100 µM (inactive)
GI50 (UO-31): > 90.2 µM (inactive)

CN1CCN([C@H]2C[C@H]3[C@@H]4CC=C5C[C@@H](O)CC[C@]5(C)[C@H]4CC[C@]3(C)C2=O)CC1
GI50 (786-0): > 100 µM (inactive)
GI50 (A498): > 100 µM (inactive)
GI50 (COLO 205): > 100 µM (inactive)
GI50 (HCT-15): > 100 µM
GI50 (HL-60): 31.8 µM (inactive)
GI50 (HOP-62): > 100 µM (inactive)
GI50 (HOP-92): > 100 µM (inactive)
GI50 (M14): > 100 µM (inactive)
GI50 (MDA-MB-231): > 100 µM (inactive)
GI50 (MOLT-4): > 100 µM (inactive)
GI50 (Malme-3M): > 100 µM (inactive)
GI50 (NCI/ADR-RES): > 100 µM (inactive)
GI50 (OVCAR-3): > 100 µM (inactive)
GI50 (PC-3): > 100 µM (inactive)
GI50 (RPMI-8226): 91 µM (inactive)
GI50 (SK-MEL-5): > 100 µM (inactive)
GI50 (SNB-19): > 100 µM (inactive)
GI50 (SNB-75): > 100 µM (inactive)
GI50 (SW-620): > 100 µM (inactive)
GI50 (UO-31): > 100 µM (inactive)

CC(C)CC(NC=O)C(=O)NC(Cc1ccccc1)NC(=O)CNC(=O)C(C)NC(=O)OC(C)(C)C (centres undefined)
GI50 (786-0): > 100 µM (inactive)
GI50 (A498): 21.9 µM (inactive)
GI50 (COLO 205): > 100 µM (inactive)
GI50 (HCT-15): > 100 µM
GI50 (HL-60): > 100 µM (inactive)
GI50 (HOP-62): > 100 µM (inactive)
GI50 (HOP-92): > 100 µM (inactive)
GI50 (M14): > 100 µM (inactive)
GI50 (MDA-MB-231): > 100 µM (inactive)
GI50 (MOLT-4): > 100 µM (inactive)
GI50 (Malme-3M): > 100 µM (inactive)
GI50 (NCI/ADR-RES): > 100 µM (inactive)
GI50 (OVCAR-3): > 100 µM (inactive)
GI50 (PC-3): > 100 µM (inactive)
GI50 (RPMI-8226): > 100 µM (inactive)
GI50 (SK-MEL-5): > 100 µM (inactive)
GI50 (SNB-19): > 100 µM (inactive)
GI50 (SNB-75): > 100 µM (inactive)
GI50 (SW-620): > 100 µM (inactive)
GI50 (UO-31): > 100 µM (inactive)

CCCCC(=O)OC[n+]1ccc2c(C)c3[nH]c4ccccc4c3c(C)c2c1
GI50 (786-0): 0.298 µM (active)
GI50 (A498): 0.681 µM (active)
GI50 (COLO 205): 0.535 µM (active)
GI50 (HCT-15): 0.222 µM
GI50 (HL-60): 0.378 µM (active)
GI50 (HOP-62): 0.537 µM (active)
GI50 (HOP-92): 1.62 µM (inactive)
GI50 (M14): 1.34 µM (inactive)
GI50 (MDA-MB-231): 0.174 µM (active)
GI50 (MOLT-4): 0.0775 µM (active)
GI50 (Malme-3M): 1.46 µM (inactive)
GI50 (NCI/ADR-RES): 0.526 µM (active)
GI50 (OVCAR-3): 1.22 µM (inactive)
GI50 (PC-3): 0.298 µM (active)
GI50 (RPMI-8226): 0.195 µM (active)
GI50 (SK-MEL-5): 1.39 µM (inactive)
GI50 (SNB-19): 0.466 µM (active)
GI50 (SNB-75): 1.28 µM (inactive)
GI50 (SW-620): 0.359 µM (active)
GI50 (UO-31): 0.701 µM (active)
